This note sets out measurements from US20100190768A1, “NOVEL FUSED PYROLE DERIVATIVE” (Dainippon Sumitomo Pharma Co., Ltd., priority 2005, published 2010).

Bounds are passed on as bounds.

The target in one assay is T1, human GRα protein (Homo sapiens, UniProt P04150).
T1 construct: made in house; host or cells: insect cells infected with baculovirus; cytoplasm fraction used
T1 sequence (P04150 1-777): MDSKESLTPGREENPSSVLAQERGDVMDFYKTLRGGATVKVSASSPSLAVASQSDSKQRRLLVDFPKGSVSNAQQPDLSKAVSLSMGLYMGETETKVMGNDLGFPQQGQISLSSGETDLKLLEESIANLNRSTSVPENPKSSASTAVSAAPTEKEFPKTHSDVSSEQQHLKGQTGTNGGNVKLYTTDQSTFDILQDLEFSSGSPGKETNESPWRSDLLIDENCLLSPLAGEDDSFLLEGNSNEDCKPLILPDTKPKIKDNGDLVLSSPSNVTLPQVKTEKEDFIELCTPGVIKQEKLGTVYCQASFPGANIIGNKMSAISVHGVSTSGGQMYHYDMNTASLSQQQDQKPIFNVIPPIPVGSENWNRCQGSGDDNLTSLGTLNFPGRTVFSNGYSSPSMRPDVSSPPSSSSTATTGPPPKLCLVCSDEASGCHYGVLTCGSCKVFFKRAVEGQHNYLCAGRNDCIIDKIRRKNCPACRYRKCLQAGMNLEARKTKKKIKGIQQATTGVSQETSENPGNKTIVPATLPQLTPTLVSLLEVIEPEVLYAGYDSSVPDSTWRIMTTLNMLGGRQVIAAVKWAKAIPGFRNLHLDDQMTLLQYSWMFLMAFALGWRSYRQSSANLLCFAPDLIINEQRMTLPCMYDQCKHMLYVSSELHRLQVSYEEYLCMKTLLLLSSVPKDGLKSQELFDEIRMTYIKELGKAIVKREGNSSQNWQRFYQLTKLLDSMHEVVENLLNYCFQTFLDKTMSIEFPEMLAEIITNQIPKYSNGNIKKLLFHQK
Briefly: Binding inhibitory assay (displacement of 3H-dexamethasone from the cytoplasm fraction of baculovirus-infected insect cells). As to conditions: 100 nM test compound; 3H-Dex; NSB with 10 μM dexamethasone; read-out: Binding Inhibitory ratio (%) of 100 nM of test compound. How it is done: Insect cells, which had been infected with baculovirus for expressing human GRα protein, were suspended in an approximately equal volume of a binding buffer (10 mM Tris-Cl, 1.5 mM EDTA, 10% glycerol, 5 mM DTT, 20 mM sodium molybdate, pH 7.6). The mixture was rapidly frozen with liquid nitrogen, and then melted at room temperature. This cycle was repeated totally twice in order to break the cell membrane. The mixture was ultracentrifuged under 100,000 g at 4° C. for one hour to give the supernatant, which was the cytoplasm fraction containing human GRα protein.
A polypropylene 96-well plate (manufactured by Costar Corporation, etc.) was placed on ice, and DMSO or a test compound (each 1 μl) was put into each well. A 10 nM ^3H-Dex solution (50 μl; tritiated dexamethasone; manufactured by Amersham) in the binding buffer, and a GR protein solution, i.e., a solution by diluting the above cytoplasm fraction with the binding buffer (50 μl) were added to each well, and the plate was lightly shaken with a plate mixer, and then left to stand at 4° C. for 16 to 20 hours (the final concentration of DMSO: 1%).
A 5% solution of dextran-coated active carbon (manufactured by Sigma) suspended in the binding buffer (50 μl) was put into each well, and the plate was lightly shaken with a plate mixer for 30 seconds. Then, the plate was centrifuged at 2500 rpm at 4° C. for 5 minutes, and the ^3H count in the supernatant (50 μl) was measured by a TopCount (manufactured by Perkin-Elmer Corporation). Each test compound was tested twice.
The binding activity was calculated as follows. The mean ^3H count in the presence of dexamethason (Dex) 10 μM was considered as NSB (non-specific binding), and the binding inhibitory ratio in each well was calculated by the following equation.
Binding Inhibitory Ratio (%)=100×{1−(cpm value of each well−NSB)/(mean cpm value of DMSO-well−NSB)}
(cpm means count per minute)
The mean binding inhibitory ratio of each well was calculated by the above equation to give a binding inhibitory ratio of each test compound.
On the technique in general: In a radioligand displacement assay an active substance lowers the binding of a labelled ligand.

The subject of another assay is H4-III-E cells. Briefly: TAT (tyrosine aminotransferase) assay. The settings on record: for Agonistic activity of 10 μM test compound / activation at 10 µM: 10 μM test compound alone, relative to maximum Dex-induced TAT activity (100%); for Antagonistic activity of 10 μM test compound: 10 μM test compound together with 0.005 μM dexamethasone, inhibitory ratio against TAT activity increase by Dex; for activation at 10 µM: read-out: Agonistic activity of 10 μM test compound. The assay is classed as cell-based. How it is done:
H4-III-E cells, which had been continuously cultured in α-MEM medium A (supplemented with 10% inactivated FBS, 50 μM 2-mercapto-ethanol), were suspended in α-MEM medium A or α-MEM medium B (supplemented with 10% inactivated FBS, 50 μM 2-mercapto-ethanol, but without phenol red), and the cell suspension was seeded to a 96-well plate in an amount of 2×10^4 cells/100 μl/well, and the cells were cultured overnight. The supernatant in the medium was removed, and a test compound (100 μl, diluted with α-MEM medium A or α-MEM medium B) was added, and the cells were further cultured overnight. In order to measure the agonistic activity, a test compound was added alone, while in order to measure the antagonistic activity, a test compound was added simultaneously together with 0.005 μM dexamethasone and evaluated the extent of the inhibitory effect of said test compound against the TAT activity-inducing activity by dexamethasone.
The culture supernatant in the plate was removed by suction, and a cell lysate (20 μL; 1% NP-40, 0.2% Triton X-100, 0.25% DOC, 0.1% SDS, 1 mM EGTA, 150 mM NaCl, Tris (pH7.4), Protease inhibitor cocktail [2.5 mg/ml aprotinin, 2.5 mg/ml leupeptin, 2.5 mg/ml soybean trypsin inhibitor]) was added, and further thereto was added a TAT reaction reagent (150 μL; 10 N KOH, 0.125 M KH2PO4, 0.5 M α-ketoglutarate, 5 mM Pyridoxal-5′ phosphate, L-tyrosine), and the mixture was reacted at 37° C. for 15 minutes. Further, a 10N KOH (20 μL) was added thereto, and the mixture was reacted at 37° C. for 30 minutes, and the absorbance at 331 nm was measured by a microplate reader (SPECTRA MAX 250).
From the mean absorbance in the wells to which a test compound was added, the mean absorbance in the wells to which a compound and a TAT reaction solution were not added was subtracted.
Agonistic activity (%)=100×[(absorbance of the drug-treated group)−(absorbance of the group without TAT reaction reagent)]/[(absorbance of Dex-treated group)−(absorbance of the group without TAT reaction reagent)]
On the other hand, the antagonistic activity was calculated as follows.
Antagonistic activity (%)=Inhibitory ratio (%) against TAT activity increase by Dex=100−100×[(absorbance of the drug-treated group)−(absorbance of the group without a drug)]/[(absorbance of Dex-treated group)−(absorbance of the group without a drug)]
With regard to the agonistic activity and the antagonistic activity, the results of 10% or more were expressed as O, while the results of less than 10% were expressed as X.

As for `COc1cc(CC(=O)O)ccc1OC1CCN(CC(O)(c2cn(Cc3ccccc3)c3cc([N+](=O)[O-])ccc23)C(F)(F)F)CC1` (centres unmarked) [Example 201, [4-({1-[2-(1-Benzyl-6-nitro-1H-indol-3-yl)-3,3,3-trifluoro-2-hydroxypropyl]-piperidin-4-yl}oxy)-3-methoxyphenyl]acetic acid], the inhibition at 0.1 µM at human GRα protein was found to be 99%. Also, in the assay on H4-III-E cells, the “Agonistic activity of 10 μM test compound” value is recorded as “◯” and the “Antagonistic activity of 10 μM test compound” value (“Antagonistic activity” below) is listed as “◯”.

As to `COCCNCC(O)(c1cn(Cc2ccccc2)c2cc([N+](=O)[O-])ccc12)C(F)(F)F` (centres unmarked) [Example 131, 2-(1-Benzyl-6-nitro-1H-indol-3-yl)-1,1,1-trifluoro-3-[(2-methoxyethyl)amino]-propan-2-ol], the inhibition at 0.1 µM at human GRα protein worked out at 84%. Further, the activation at 10 µM in the assay on H4-III-E cells was less than 10%.

Consider `O=[N+]([O-])c1ccc2c(C(O)(CN3CCC4(CC3)CS(=O)(=O)c3ccccc3O4)C(F)(F)F)cn(Cc3ccccc3)c2c1` (centres unmarked) [Example 123, 2-(1-Benzyl-6-nitro-1H-indol-3-yl)-3-(4,4-dioxido-1′H-spiro[1,4-benzoxathiine-2,4′-piperidin]-1′-yl)-1,1,1-trifluoropropan-2-ol], for which the inhibition at 0.1 µM at human GRα protein worked out at 72%. In the assay with H4-III-E cells, the activation at 10 µM was less than 10% and the “Antagonistic activity” value is on record as “◯”.

As to `O=[N+]([O-])c1ccc2c(C(O)(CNCC3CCCO3)C(F)(F)F)cn(Cc3ccccc3)c2c1` (centres unmarked) [Example 140, 2-(1-Benzyl-6-nitro-1H-indol-3-yl)-1,1,1-trifluoro-3-[(tetrahydrofuran-2-yl-methyl)amino]propan-2-ol], the inhibition at 0.1 µM at human GRα protein was found to be 80%. Besides, in the assay on H4-III-E cells, the activation at 10 µM is less than 10% and the “Antagonistic activity” value was “◯”.

With `Cc1ccccc1C(=O)CC(O)(c1cn(Cc2ccccc2)c2cc([N+](=O)[O-])ccc12)C(F)(F)F` (centres unmarked) [Example 68, 3-(1-Benzyl-6-nitro-1H-indol-3-yl)-4,4,4-trifluoro-3-hydroxy-1-(2-methylphenyl)-butan-1-one], the inhibition at 0.1 µM on human GRα protein is 79%. In addition, in the assay on H4-III-E cells, the activation at 10 µM is less than 10% and the “Antagonistic activity” value is recorded as “◯”.

Turning to `CS(=O)(=O)C1CCN(CC(O)(c2cn(Cc3ccccc3)c3cc([N+](=O)[O-])ccc23)C(F)(F)F)CC1` (centres unmarked) [Example 183, 2-(1-Benzyl-6-nitro-1H-indol-3-yl)-1,1,1-trifluoro-3-[4-(methylsulfonyl)piperidin-1-yl]propan-2-ol], the inhibition at 0.1 µM on human GRα protein was found to be 88%. For the same compound, in the assay with H4-III-E cells, the “Agonistic activity of 10 μM test compound” value is reported as “◯” and the “Antagonistic activity” value is given as “◯”.

`O=[N+]([O-])c1ccc2c(C(O)(Cn3cccn3)C(F)(F)F)cn(Cc3ccccc3)c2c1` (centres unmarked) [Example 150, 2-(1-Benzyl-6-nitro-1H-indol-3-yl)-1,1,1-trifluoro-3-(1H-pyrazol-1-yl)propan-2-ol]: the inhibition at 0.1 µM on human GRα protein stood at 98%. Also, in the assay with H4-III-E cells, the “Agonistic activity of 10 μM test compound” value was “◯” and the “Antagonistic activity” value was “◯”.

As for `O=[N+]([O-])c1ccc2c(C(O)(CN3CCCCC3)C(F)(F)F)cn(Cc3ccccc3)c2c1` (centres unmarked) [Example 1, 2-(1-Benzyl-6-nitro-1H-indol-3-yl)-1,1,1-trifluoro-3-piperidin-1-ylpropan-2-ol], the inhibition at 0.1 µM at human GRα protein was determined as 92%. Also, in the assay on H4-III-E cells, the activation at 10 µM was less than 10% and the “Antagonistic activity” value was “◯”.

Take `CCOC(=O)CCc1ccc(OC2CCN(CC(O)(c3cn(Cc4ccccc4)c4cc([N+](=O)[O-])ccc34)C(F)(F)F)CC2)cc1` (centres unmarked) [Example 181, Ethyl 3-[4-({1-[2-(1-benzyl-6-nitro-1H-indol-3-yl)-3,3,3-trifluoro-2-hydroxypropyl]piperidin-4-yl}oxy)phenyl]propanoate]: at human GRα protein, the inhibition at 0.1 µM is 87%. In the assay with H4-III-E cells, the “Agonistic activity of 10 μM test compound” value was “◯” and the “Antagonistic activity” value is “◯”.

`C=CCC(O)(c1cn(Cc2ccccc2)c2cc([N+](=O)[O-])ccc12)C(F)(F)F` (centres unmarked) [Example 8, 2-(1-Benzyl-6-nitro-1H-indol-3-yl)-1,1,1-trifluoropent-4-en-2-ol]: at human GRα protein, the inhibition at 0.1 µM came to 98%. For the same compound, in the assay with H4-III-E cells, the activation at 10 µM was less than 10% and the “Antagonistic activity” value was “◯”.

Turning to `CCOC(=O)CCCCNCC(O)(c1cn(Cc2ccccc2)c2cc([N+](=O)[O-])ccc12)C(F)(F)F` (centres unmarked) [Example 173, Ethyl 5-{[2-(1-benzyl-6-nitro-1H-indol-3-yl)-3,3,3-trifluoro-2-hydroxypropyl]-amino}pentanoate], the inhibition at 0.1 µM on human GRα protein was determined as 88%. Moreover, in the assay with H4-III-E cells, the activation at 10 µM is less than 10% and the “Antagonistic activity” value was “◯”.

Regarding `COc1ccc(Cn2cc(C(O)(CN3CCC(Oc4ccc(CC(=O)O)cc4OC)CC3)C(F)(F)F)c3ccc(C#N)cc32)cc1` (centres unmarked) [Example 226, {4-[(1-{2-[6-Cyano-1-(4-methoxybenzyl)-1H-indol-3-yl]-3,3,3-trifluoro-2-hydroxypropyl}piperidin-4-yl)oxy]-3-methoxyphenyl}acetic acid], on human GRα protein, the inhibition at 0.1 µM worked out at 96%. Moreover, in the assay on H4-III-E cells, the “Agonistic activity of 10 μM test compound” value is recorded as “◯” and the “Antagonistic activity” value was “◯”.

As for `O=C(c1cccs1)N1CCN(CC(O)(c2cn(Cc3ccccc3)c3cc([N+](=O)[O-])ccc23)C(F)(F)F)CC1` (centres unmarked) [Example 106, 2-(1-Benzyl-6-nitro-1H-indol-3-yl)-1,1,1-trifluoro-3-[4-(2-thienylcarbonyl)-piperazin-1-yl]propan-2-ol], on human GRα protein, the inhibition at 0.1 µM was determined as 101%. Also, in the assay with H4-III-E cells, the “Agonistic activity of 10 μM test compound” value is given as “◯” and the “Antagonistic activity” value is given as “◯”.
